Results taken from patent US20150045341A1, “DISUBSTITUTED ARYL AZETIDINE DERIVATIVES AS SPHINGOSINE-1 PHOSPHATE RECEPTORS MODULATORS” (Allergan, Inc., priority 2013, published 2015).

Molecular target: T1, human S1P1 receptor (Homo sapiens, UniProt P21453)
T1 construct: expressed in transfected cells; membranes from cells stably expressing the S1P1 receptor
Assay: GTP γ35S binding assay for S1P1 activity
Format: biochemical
Conditions: membranes of cells stably expressing the S1P1 receptor, test compounds 0.08 to 5,000 nM, 30 min at 25° C.
Protocol: Compounds were synthesized and tested for S1P1 activity using the GTP γ^35S binding assay. These compounds may be assessed for their ability to activate or block activation of the human S1P1 receptor in cells stably expressing the S1P1 receptor.
GTP γ^35S binding was measured in the medium containing (mM) HEPES 25, pH 7.4, MgCl2 10, NaCl 100, dithiothreitol 0.5, digitonin 0.003%, 0.2 nM GTP γ^35S, and 5 μg membrane protein in a volume of 150 μl. Test compounds were included in the concentration range from 0.08 to 5,000 nM unless indicated otherwise. Membranes were incubated with 100 μM 5′-adenylylimidodiphosphate for 30 min, and subsequently with 10 μM GDP for 10 min on ice. Drug solutions and membrane were mixed, and then reactions were initiated by adding GTP γ^35S and continued for 30 min at 25° C. Reaction mixtures were filtered over Whatman GF/B filters under vacuum, and washed three times with 3 mL of ice-cold buffer (HEPES 25, pH7.4, MgCl2 10 and NaCl 100). Filters were dried and mixed with scintillant, and counted for ^35S activity using a β-counter. Agonist-induced GTP γ^35S binding was obtained by subtracting that in the absence of agonist. Binding data were analyzed using a non-linear regression method. In case of antagonist assay, the reaction mixture contained 10 nM […] in the presence of test antagonist at concentrations ranging from 0.08 to 5000 nM.

T1 sequence (P21453 whole entry): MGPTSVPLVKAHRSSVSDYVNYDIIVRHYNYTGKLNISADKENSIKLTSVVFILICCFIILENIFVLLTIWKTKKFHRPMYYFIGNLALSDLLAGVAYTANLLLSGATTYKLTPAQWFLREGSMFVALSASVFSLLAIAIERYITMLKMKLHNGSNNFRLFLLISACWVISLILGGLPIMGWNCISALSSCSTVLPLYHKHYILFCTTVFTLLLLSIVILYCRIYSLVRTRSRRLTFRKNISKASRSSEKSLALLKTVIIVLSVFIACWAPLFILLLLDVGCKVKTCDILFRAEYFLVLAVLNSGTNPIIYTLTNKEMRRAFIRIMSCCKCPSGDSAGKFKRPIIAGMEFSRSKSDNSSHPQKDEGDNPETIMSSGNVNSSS

EC50 [nM] | Structure (SMILES)
2.71 | CCCCC(CCCOc1ccc(CN2CC(C(=O)O)C2)cc1Cl)Cc1ccc(C)c(C)c1 (stereo not drawn) [1-(3-chloro-4-{[4-(3,4-dimethylbenzyl)octyl]oxy}benzyl)azetidine-3-carboxylic acid]
2.05 | CCCC(CCCOc1c(C)cc(CN2CC(C(=O)O)C2)cc1C)Cc1ccc(C)c(C)c1 (stereo not drawn) [1-(4-{[4-(3,4-dimethylbenzyl)heptyl]oxy}-3,5-dimethylbenzyl)azetidine-3-carboxylic acid]
2.91 | CCCCC(CCCOc1c(F)cc(CN2CC(C(=O)O)C2)cc1OC)Cc1ccc(C)c(C)c1 (stereo not drawn) [1-(4-{[4-(3,4-dimethylbenzyl)octyl]oxy}-3-fluoro-5-methoxybenzyl)azetidine-3-carboxylic acid]
5.42 | CCCCC(CCCOc1ccc(CN2CC(C(=O)O)C2)cc1F)Cc1ccc(C)c(C)c1 (stereo not drawn) [1-(4-{[4-(3,4-dimethylbenzyl)octyl]oxy}-3-fluorobenzyl)azetidine-3-carboxylic acid]
6.04 | CCCCCC(CCCOc1ccc(CN2CC(C(=O)O)C2)cc1)Cc1ccc(C)c(C)c1 (stereo not drawn) [Compound 1, 1-(4-{[4-(3,4-Dimethylbenzyl)nonyl]oxy}benzyl)azetidine-3-carboxylic acid]
1.03 | CCCCC(CCCOc1ccc(CN2CC(C(=O)O)C2)cc1)Cc1ccc(C)c(C)c1 (stereo not drawn) [Compound 2, 1-(4-{[4-(3,4-Dimethylbenzyl)octyl]oxy}benzyl)azetidine-3-carboxylic acid]
6.51 | CCCC(CCCOc1ccc(CN2CC(C(=O)O)C2)cc1)Cc1ccc(C)c(C)c1 (stereo not drawn) [Compound 3, 1-(4-{[4-(3,4-Dimethylbenzyl)heptyl]oxy}benzyl)azetidine-3-carboxylic acid]
69.2 | CCC(CCCOc1ccc(CN2CC(C(=O)O)C2)cc1)Cc1ccc(C)c(C)c1 (stereo not drawn) [Compound 4, 1-(4-{[4-(3,4-Dimethylbenzyl)hexyl]oxy}benzyl)azetidine-3-carboxylic acid]
102 | CCCCCCC(CCCOc1ccc(CN2CC(C(=O)O)C2)cc1)Cc1ccc(C)c(C)c1 (stereo not drawn) [Compound 5, 1-(4-{[4-(3,4-Dimethylbenzyl)decyl]oxy}benzyl)azetidine-3-carboxylic acid]
11.7 | CCCCC(CCCOc1c(C)cc(CN2CC(C(=O)O)C2)cc1C)Cc1ccc(C)c(C)c1 (stereo not drawn) [Compound 6, 1-(4-{[4-(3,4-Dimethylbenzyl)octyl]oxy}-3,5-dimethylbenzyl)azetidine-3-carboxylic acid]
5.8 | CCCCC(CCCOc1ccc(CN2CC(C(=O)O)C2)cc1C)Cc1ccc(C)c(C)c1 (stereo not drawn) [Compound 7, 1-(4-{[4-(3,4-Dimethylbenzyl)octyl]oxy}-3-dimethylbenzyl)azetidine-3-carboxylic acid]
6.54 | CCCCC(CCCOc1ccc(CN2CC(C(=O)O)C2)cc1Br)Cc1ccc(C)c(C)c1 (stereo not drawn) [Compound 8, 1-(3-Bromo-4-{[4-(3,4-dimethylbenzyl)octyl]oxy}benzyl)azetidine-3-carboxylic acid]
13.8 | CCCCCC(CCCOc1ccc(CN2CC(C(=O)O)C2)cc1Cl)Cc1ccc(C)c(C)c1 (stereo not drawn) [Compound 13, 1-(3-Chloro-4-{[4-(3,4-dimethylbenzyl)nonyl]oxy}benzyl)azetidine-3-carboxylic acid]
11.6 | CCCC(CCCOc1ccc(CN2CC(C(=O)O)C2)cc1Cl)Cc1ccc(C)c(C)c1 (stereo not drawn) [Compound 14, 1-(3-Chloro-4-{[4-(3,4-dimethylbenzyl)heptyl]oxy}benzyl)azetidine-3-carboxylic acid]
21.2 | CCCC(CCCOc1ccc(CN2CC(C(=O)O)C2)cc1C)Cc1ccc(C)c(C)c1 (stereo not drawn) [Compound 16, 1-(4-{[4-(3,4-Dimethylbenzyl)heptyl]oxy}-3-methylbenzyl)azetidine-3-carboxylic acid]
